# Measurements reported in patent US8399208B2, “Method and kit for the measurement of neutrophil cell activation” (Universite de Liege, priority 2004, dated 2013).
# Legend:
# [1] = tested on: activated equine neutrophils; assay: Chemiluminescence response (lucigenin) of PMA-activated equine neutrophils; assay type: cell-based, horse; conditions: for Inhibition percentage on chemiluminescence response of activated neutrophils: 10^-5 M, neutrophils activated with 8×10^-7 M PMA, lucigenin
# Experimental: (§1) Neutrophils isolated from citrated blood of healthy horses were counted, suspended in phosphate buffer saline (PBS) at pH 7.4 and incubated 10 min at 37° C. with curcumin or THC at the final concentration of 10^−4, 10^−5 or 10^−6 M. After incubation and centrifugation (1000×g, 10 min), the neutrophils were resuspended in PBS and either activated 30 min with 8×10^−7 M phorbol myristate acetate (PMA), with a simultaneous monitoring of the chemiluminescent response in presence of lucigenin (5×10^-8 M), or activated in the same conditions followed by centrifugation and MPO measurement in the supernatant. MPO, marker of neutrophil degranulation, was measured by a specific ELISA assay raised against equine MPO. The effect of polyphenols on MPO activity was tested by SIEFED (“Specific Immunological Extraction Followed by Enzymatic Detection”) method that allows the study of drug interaction with the enzyme without reaction medium interferences.
# [2] = tested on: activated equine neutrophils; assay: MPO release by PMA-activated neutrophils, MPO measured by ELISA in the supernatant; assay type: cell-based, horse; conditions: for Inhibitory percentage, MPO assay by ELISA in the supernatant after neutrophils activation with PMA (MPO release): drug concentration 10^-5 M
# Experimental: FIG. 16 represents the inhibitory effect of curcumin on MPO release by neutrophils incubated in PBS buffer with or without stimulation with phorbol myristate acetate (PMA) (Curcumin (Curcu) was dissolved in ethanol. MPO was measured by ELISA in the supernatant of activated neutrophils).
# The ELISA developed for MPO (1) measurement is further referred to as a MYELO-ELISA. Rabbit IgG, the primary antibody (2), is immobilized (coated) in excess (3 μg/ml) onto microtitration wells (3) (Cliniplate EB, Labsystem). Standard or test antigen (equine MPO (1)) is incubated overnight with the primary antibody (2) at 4° C. After washing (0.9% NaCl solution containing 0.1% tween 20), the immobilized antibody-antigen complex is incubated (2 h, 37° C.) with an excess (5 μg/ml) of guinea pig IgG, the secondary antibody (4). After washing, a third antibody (5) produced against guinea pig IgG is added. This third IgG (5) (goat IgG) is labelled with alkaline phosphatase (6) and recognizes the “sandwich” complex “primary antibody-MPO-secondary antibody”. After washing, phosphatase activity is detected by incubation (30 min, 37° C., in the darkness) with a paranitrophenyl phosphate solution (phosphatase substrate, Sigma). The reaction is stopped with NaOH and the absorbance (405 nm) is measured with a Multiscan Ascent apparatus (Labsystem) (7). All the volumes added into the wells comprise 100 μl, except for washing (300 μl) and for the substrate solution (200 μl). Controls (blank) and dilutions of the standard MPO and samples were established with dilution buffer [PBS (20 mM phosphate, 137 mM NaCl and 2.7 mM KCl pH 7.4) to which 5 g/L bovine serum albumin and 0.1% tween 20 was added]. The same ELISA technique was developed also for monoclonal antibodies as primary antibody.
# as §1
# equine MPO = assay: MPO activity by SIEFED (specific immunological extraction followed by enzymatic detection); assay type: biochemical, horse; conditions: for Effect on MPO activity (in words): SIEFED, polyphenol incubated with MPO, then capture, washing, enzymatic detection
# Experimental: FIG. 17 represents the inhibitory effect of curcumin on MPO activity. Concentration of MPO used: 9 ng/ml. The incubation time of curcumin with MPO before assay by SIEFED was 30 min. (The most concentrated curcumin solution was prepared in ethanol (175 mM) and dilutions of this concentrated solution were performed with PBS buffer).
# As for the ELISA test, the primary antibody, that captures MPO, is rabbit IgG (3 μg/ml). Standard MPO or unknown sample is incubated 2 h at 37° C. After washing, the peroxidase activity of MPO is detected by adding 100 μl of a 10 μM H2O2 solution and 40 μM of Amplex® Red (10-acetyl-3,7-dihydroxyphenoxazine; Molecular Probes) in phosphate buffer (50 mM, pH 7.5). After incubation in the darkness (30 min, 37° C.), the fluorescence is read at 590 nm with a Fluoroskan Ascent apparatus (Labsystems). The volumes of the primary antibody and the sample put in the wells, are 200 μl. Controls (blank) and dilutions of the samples are established with dilution buffer.
# as §1
# The SIEFED was applied to study the effects of two natural polyphenols (curcumin and resveratrol) on MPO activity.
Compound,"Effect on the chemiluminescence response of activated neutrophils (in words) ([1]; 10^-4, 10^-5 or 10^-6 M)",Inhibition percentage on chemiluminescence response of activated neutrophils [1],"Effect on the MPO release by activated neutrophils (in words) ([2]; 10^-4, 10^-5 or 10^-6 M)","Inhibitory percentage, MPO assay by ELISA in the supernatant after neutrophils activation with PMA ([2]; drug concentration 10^-4 M)","Inhibitory percentage, MPO assay by ELISA in the supernatant after neutrophils activation with PMA (MPO release) [2]","Inhibitory percentage, MPO assay by ELISA in the supernatant after neutrophils activation with PMA (MPO release) ([2]; listed as curcumin)","Inhibitory percentage, MPO assay by ELISA in the supernatant after neutrophils activation with PMA ([2]; drug concentration 10^-6 M)",Effect on MPO activity (in words) (equine MPO),Effect on MPO activity (in words) (equine MPO; listed as curcumin),"Inhibitory percentage, MPO activity (SIEFED) (equine MPO; drug concentration 10^-4 M)","Inhibitory percentage, MPO activity (SIEFED) (equine MPO; drug concentration 10^-5 M)","Inhibitory percentage, MPO activity (SIEFED) (equine MPO; drug concentration 10^-5 M, listed as curcumin)","Inhibitory percentage, MPO activity (SIEFED) (equine MPO; drug concentration 10^-6 M)"
COc1cc(/C=C/C(=O)CC(=O)/C=C/c2ccc(O)c(OC)c2)ccc1O [Curcumin],dose dependent inhibitory effects,70%,dose dependent inhibitory effects,83.5%,43.6%,44%,0%,dose dependent inhibitory effects,direct dose dependent inhibitory effect,96.2%,60.4%,60%,21.1%
Oc1ccc(C=Cc2cc(O)cc(O)c2)cc1 [resveratrol],,,,,,,,direct dose dependent inhibitory effect,,,,,
COc1cc(CCC(=O)CC(=O)CCc2ccc(O)c(OC)c2)ccc1O [tetrahydrocurcumin],,12%,,41%,18%,,17%,,,,,,
